Assay results taken from patent publication US20260262643A1, “HERBICIDAL BENZOXAZINES” (FMC CORPORATION, priority 2022, published 2026).

How the values were obtained:
corn [1] = assay: Test C preemergence; type: in vivo, Zea mays; conditions: 0 to 100 scale (0 no effect, 100 complete control); for Corn plant response rating: preemergence
How it was run: (§1)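 Seeds sown in loam soil–sand blend received a directed preemergence soil spray of test chemical in non-phytotoxic solvent with surfactant; postemergence plants (2–10 cm, one- to two-leaf stage) were sprayed with the same formulation. Greenhouse-held 10 days, then visually rated for injury versus untreated controls, 0 (no effect) to 100 (complete control).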

kochia [2] = assay: Test C postemergence; type: in vivo, Bassia scoparia; conditions: 10 days
How it was run: as §1

barnyardgrass [3] = assay: Test D flooded paddy test; type: in vivo, Echinochloa crus-galli; conditions: 250 g ai/ha, applied to paddy water, visual rating after 13 to 14 days, scale 0 to 100 (0 no effect, 100 complete control)
How it was run: (§2)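 Plants at the 2-leaf stage were grown in pots flooded to 3 cm, and compound was applied directly into the paddy water, with depth kept throughout. After 13–14 days in a greenhouse, injury was rated visually against untreated controls on a 0–100 scale (100 = complete control); a dash means not tested.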

ryegrass, Italian [4] = assay: Test C postemergence; type: in vivo, Lolium multiflorum; conditions: 10 days
How it was run: as §1

ryegrass, Italian [5] = assay: Test C preemergence; type: in vivo, Lolium multiflorum; conditions: 0 to 100 scale (0 no effect, 100 complete control); for Ryegrass, Italian plant response rating: preemergence
How it was run: as §1

blackgrass [6] = assay: Test C postemergence; type: in vivo, Alopecurus myosuroides; conditions: 10 days
How it was run: as §1

barnyardgrass [7] = assay: Test C postemergence; type: in vivo, Echinochloa crusgalli; conditions: 10 days
How it was run: as §1

barnyardgrass [8] = assay: Test C preemergence; type: in vivo, Echinochloa crusgalli; conditions: 0 to 100 scale (0 no effect, 100 complete control); for Plant response rating, Barnyardgrass: Preemergence, 500 g ai/ha, visual rating after 10 days; for Barnyardgrass plant response rating: Test C, preemergence, 125 g ai/ha
How it was run: as §1

wheat [9] = assay: Test C preemergence; type: in vivo, Triticum aestivum; conditions: 0 to 100 scale (0 no effect, 100 complete control); for Wheat plant response rating: preemergence
How it was run: as §1

oat, wild [10] = assay: Test C postemergence; type: in vivo, Avena fatua; conditions: 10 days
How it was run: as §1

soybean [11] = assay: Test C postemergence; type: in vivo, Glycine max; conditions: 10 days
How it was run: as §1

kochia [12] = assay: Test C preemergence; type: in vivo, Bassia scoparia; conditions: 0 to 100 scale (0 no effect, 100 complete control); for Kochia plant response rating: preemergence
How it was run: as §1

wheat [13] = assay: Test C postemergence; type: in vivo, Triticum aestivum; conditions: 10 days
How it was run: as §1

ragweed [14] = assay: Test C postemergence; type: in vivo, Ambrosia artemisiifolia; conditions: 10 days
How it was run: as §1

ducksalad = assay: Test D flooded paddy test; type: in vivo, Heteranthera limosa; conditions: 250 g ai/ha, applied to paddy water, visual rating after 13 to 14 days, scale 0 to 100 (0 no effect, 100 complete control)
How it was run: as §2

rice = assay: Test D flooded paddy test; type: in vivo, Oryza sativa; conditions: 250 g ai/ha, applied to paddy water, visual rating after 13 to 14 days, scale 0 to 100 (0 no effect, 100 complete control)
How it was run: as §2

sedge, umbrella = assay: Test D flooded paddy test; type: in vivo, Cyperus difformis; conditions: 250 g ai/ha, applied to paddy water, visual rating after 13 to 14 days, scale 0 to 100 (0 no effect, 100 complete control)
How it was run: as §2

pigweed, palmer [15] = assay: Test C preemergence; type: in vivo, Amaranthus palmeri; conditions: 0 to 100 scale (0 no effect, 100 complete control); for Pigweed, Palmer plant response rating: preemergence
How it was run: as §1

galium = assay: Test C postemergence; type: in vivo, Galium aparine; conditions: 10 days
How it was run: as §1

ragweed [16] = assay: Test C preemergence; type: in vivo, Ambrosia artemisiifolia; conditions: 0 to 100 scale (0 no effect, 100 complete control); for Ragweed plant response rating: preemergence
How it was run: as §1

green foxtail [17] = assay: Test C postemergence; type: in vivo, Setaria viridis; conditions: 10 days
How it was run: as §1

horseweed = assay: Test C postemergence; type: in vivo, Erigeron canadensis; conditions: 10 days
How it was run: as §1

soybean [18] = assay: Test C preemergence; type: in vivo, Glycine max; conditions: 0 to 100 scale (0 no effect, 100 complete control); for Soybean plant response rating: preemergence
How it was run: as §1

corn [19] = assay: Test C postemergence; type: in vivo, Zea mays; conditions: 10 days
How it was run: as §1

blackgrass [20] = assay: Test C preemergence; type: in vivo, Alopecurus myosuroides; conditions: 0 to 100 scale (0 no effect, 100 complete control); for Plant response rating, Blackgrass: Preemergence, 500 g ai/ha, visual rating after 10 days; for Blackgrass plant response rating: Test C, preemergence, 125 g ai/ha
How it was run: as §1

oat, wild [21] = assay: Test C preemergence; type: in vivo, Avena fatua; conditions: 0 to 100 scale (0 no effect, 100 complete control); for Oat, Wild plant response rating: preemergence
How it was run: as §1

green foxtail [22] = assay: Test C preemergence; type: in vivo, Setaria viridis; conditions: 0 to 100 scale (0 no effect, 100 complete control); for Foxtail, Green plant response rating: preemergence
How it was run: as §1

pigweed, palmer [23] = assay: Test C postemergence; type: in vivo, Amaranthus palmeri; conditions: 10 days
How it was run: as §1

[24] = 125 g ai/ha, postemergence, 0 to 100 scale, 0 no effect, 100 complete control
[25] = Postemergence, 500 g ai/ha, visual 0 to 100 scale (0 no effect, 100 complete control)
[26] = Preemergence, 500 g ai/ha, visual rating after 10 days

COC[C@H]1CN(C(=O)c2cc(-n3cnc(C(C)(C)O)n3)ccc2C)c2cccc(Cl)c2O1 [Compound 276]
Corn plant response rating (corn [1]; 500 g ai/ha): 90 | Corn plant response rating (corn [1]; Test C, 125 g ai/ha): 50 | Plant response rating, Kochia (kochia [2]; [24]): 70 | Plant response rating, Barnyardgrass (Flood) (barnyardgrass [3]): 35 | Plant response rating, Ryegrass, Italian (ryegrass, Italian [4]; [24]): 80 | Ryegrass, Italian plant response rating (ryegrass, Italian [5]; 500 g ai/ha): 90 | Ryegrass, Italian plant response rating (ryegrass, Italian [5]; Test C, 125 g ai/ha): 90 | Plant response rating, Blackgrass (blackgrass [6]; [24]): 60 | Plant response rating, Blackgrass (blackgrass [6]; [25]): 90 | Plant response rating, Barnyardgrass (barnyardgrass [7]; [24]): 30 | Plant response rating, Barnyardgrass (barnyardgrass [7]; [25]): 90 | Plant response rating, Barnyardgrass (barnyardgrass [8]): 100 | Barnyardgrass plant response rating (barnyardgrass [8]): 90 | Wheat plant response rating (wheat [9]; 500 g ai/ha): 90 | Wheat plant response rating (wheat [9]; Test C, 125 g ai/ha): 80 | Plant response rating, Oat, Wild (oat, wild [10]; [24]): 80 | Plant response rating, Soybean (soybean [11]; [24]): 100 | Kochia plant response rating (kochia [12]; 500 g ai/ha): 90 | Kochia plant response rating (kochia [12]; Test C, 125 g ai/ha): 90 | Plant response rating, Wheat (wheat [13]; [24]): 60 | Plant response rating, Ragweed (ragweed [14]; [24]): 60 | Plant response rating, Ducksalad (Flood) (ducksalad): 70 | Plant response rating, Rice (Flood) (rice): 20 | Plant response rating, Sedge, Umbrella (Flood) (sedge, umbrella): 80 | Pigweed, Palmer plant response rating (pigweed, palmer [15]; 500 g ai/ha): 100 | Pigweed, Palmer plant response rating (pigweed, palmer [15]; Test C, 125 g ai/ha): 100 | Plant response rating, Galium (galium; [24]): 100 | Plant response rating, Galium (galium; [25]): 100 | Ragweed plant response rating (ragweed [16]; 500 g ai/ha): 80 | Ragweed plant response rating (ragweed [16]; Test C, 125 g ai/ha): 60 | Plant response rating, Foxtail, Green (green foxtail [17]; [24]): 40 | Plant response rating, Foxtail, Green (green foxtail [17]; [25]): 90 | Plant response rating, Horseweed (horseweed; [24]): 50 | Plant response rating, Horseweed (horseweed; [25]): 40 | Soybean plant response rating (soybean [18]; 500 g ai/ha): 100 | Soybean plant response rating (soybean [18]; Test C, 125 g ai/ha): 100 | Plant response rating, Corn (corn [19]; [24]): 50 | Plant response rating, Corn (corn [19]; [25]): 90 | Plant response rating, Blackgrass (blackgrass [20]): 90 | Blackgrass plant response rating (blackgrass [20]): 90 | Oat, Wild plant response rating (oat, wild [21]; 500 g ai/ha): 90 | Oat, Wild plant response rating (oat, wild [21]; Test C, 125 g ai/ha): 80 | Foxtail, Green plant response rating (green foxtail [22]; 500 g ai/ha): 100 | Foxtail, Green plant response rating (green foxtail [22]; Test C, 125 g ai/ha): 100 | Plant response rating, Pigweed, Palmer (pigweed, palmer [23]; [24]): 60

CCc1ncn(-c2ccc(C)c(C(=O)N3CC(C(F)(F)F)Oc4c(Cl)cccc43)c2)n1 (single isomer, unassigned) [Compound 218]
Plant response rating, Corn (corn [1]; [26]): 60 | Corn plant response rating (corn [1]; Test C, 125 g ai/ha): 20 | Plant response rating, Kochia (kochia [2]; [24]): 90 | Plant response rating, Kochia (kochia [2]; [25]): 100 | Plant response rating, Barnyardgrass (Flood) (barnyardgrass [3]): 0 | Plant response rating, Ryegrass, Italian (ryegrass, Italian [4]; [24]): 80 | Plant response rating, Ryegrass, Italian (ryegrass, Italian [4]; [25]): 90 | Plant response rating, Ryegrass, Italian (ryegrass, Italian [5]; [26]): 90 | Ryegrass, Italian plant response rating (ryegrass, Italian [5]; Test C, 125 g ai/ha): 90 | Plant response rating, Blackgrass (blackgrass [6]; [24]): 90 | Plant response rating, Blackgrass (blackgrass [6]; [25]): 100 | Plant response rating, Barnyardgrass (barnyardgrass [7]; [24]): 100 | Plant response rating, Barnyardgrass (barnyardgrass [7]; [25]): 100 | Plant response rating, Barnyardgrass (barnyardgrass [8]): 100 | Barnyardgrass plant response rating (barnyardgrass [8]): 100 | Plant response rating, Wheat (wheat [9]; [26]): 80 | Wheat plant response rating (wheat [9]; Test C, 125 g ai/ha): 30 | Plant response rating, Oat, Wild (oat, wild [10]; [24]): 30 | Plant response rating, Oat, Wild (oat, wild [10]; [25]): 80 | Plant response rating, Soybean (soybean [11]; [24]): 100 | Plant response rating, Soybean (soybean [11]; [25]): 100 | Plant response rating, Kochia (kochia [12]; [26]): 100 | Kochia plant response rating (kochia [12]; Test C, 125 g ai/ha): 90 | Plant response rating, Wheat (wheat [13]; [24]): 60 | Plant response rating, Wheat (wheat [13]; [25]): 90 | Plant response rating, Ragweed (ragweed [14]; [24]): 80 | Plant response rating, Ragweed (ragweed [14]; [25]): 80 | Plant response rating, Ducksalad (Flood) (ducksalad): 60 | Plant response rating, Rice (Flood) (rice): 0 | Plant response rating, Sedge, Umbrella (Flood) (sedge, umbrella): 80 | Plant response rating, Pigweed, Palmer (pigweed, palmer [15]; [26]): 100 | Pigweed, Palmer plant response rating (pigweed, palmer [15]; Test C, 125 g ai/ha): 100 | Plant response rating, Galium (galium; [24]): 100 | Plant response rating, Galium (galium; [25]): 100 | Plant response rating, Ragweed (ragweed [16]; [26]): 80 | Ragweed plant response rating (ragweed [16]; Test C, 125 g ai/ha): 20 | Plant response rating, Foxtail, Green (green foxtail [17]; [24]): 90 | Plant response rating, Foxtail, Green (green foxtail [17]; [25]): 90 | Plant response rating, Horseweed (horseweed; [24]): 0 | Plant response rating, Horseweed (horseweed; [25]): 70 | Plant response rating, Soybean (soybean [18]; [26]): 100 | Soybean plant response rating (soybean [18]; Test C, 125 g ai/ha): 90 | Plant response rating, Corn (corn [19]; [24]): 70 | Plant response rating, Corn (corn [19]; [25]): 70 | Plant response rating, Blackgrass (blackgrass [20]): 80 | Blackgrass plant response rating (blackgrass [20]): 40 | Plant response rating, Oat, Wild (oat, wild [21]; [26]): 90 | Oat, Wild plant response rating (oat, wild [21]; Test C, 125 g ai/ha): 60 | Plant response rating, Foxtail, Green (green foxtail [22]; [26]): 100 | Foxtail, Green plant response rating (green foxtail [22]; Test C, 125 g ai/ha): 100 | Plant response rating, Pigweed, Palmer (pigweed, palmer [23]; [24]): 90 | Plant response rating, Pigweed, Palmer (pigweed, palmer [23]; [25]): 90
